Experimental data from patent US6548494B1, “Tricyclic inhibitors of poly(ADP-ribose) polymerases” (Agouron Pharmaceuticals, Inc., priority 1999, dated 2003).
Several values for one entry are separate records, joined by “and”; a condition that tells them apart may be missing. Identical values can stand only once.

Legend:
[1] = biological target: purified PARP protein (Homo sapiens, UniProt P09874); experiment: PARP enzyme inhibition assay; format: biochemical; conditions: 20 nM purified PARP (5 nM for tight-binding inhibitors), 500 μM NAD+, 25° C.; several values in one cell = repeat determinations; read-out: Inhibition Constant Ki
Chain of purified PARP protein (P09874 whole entry): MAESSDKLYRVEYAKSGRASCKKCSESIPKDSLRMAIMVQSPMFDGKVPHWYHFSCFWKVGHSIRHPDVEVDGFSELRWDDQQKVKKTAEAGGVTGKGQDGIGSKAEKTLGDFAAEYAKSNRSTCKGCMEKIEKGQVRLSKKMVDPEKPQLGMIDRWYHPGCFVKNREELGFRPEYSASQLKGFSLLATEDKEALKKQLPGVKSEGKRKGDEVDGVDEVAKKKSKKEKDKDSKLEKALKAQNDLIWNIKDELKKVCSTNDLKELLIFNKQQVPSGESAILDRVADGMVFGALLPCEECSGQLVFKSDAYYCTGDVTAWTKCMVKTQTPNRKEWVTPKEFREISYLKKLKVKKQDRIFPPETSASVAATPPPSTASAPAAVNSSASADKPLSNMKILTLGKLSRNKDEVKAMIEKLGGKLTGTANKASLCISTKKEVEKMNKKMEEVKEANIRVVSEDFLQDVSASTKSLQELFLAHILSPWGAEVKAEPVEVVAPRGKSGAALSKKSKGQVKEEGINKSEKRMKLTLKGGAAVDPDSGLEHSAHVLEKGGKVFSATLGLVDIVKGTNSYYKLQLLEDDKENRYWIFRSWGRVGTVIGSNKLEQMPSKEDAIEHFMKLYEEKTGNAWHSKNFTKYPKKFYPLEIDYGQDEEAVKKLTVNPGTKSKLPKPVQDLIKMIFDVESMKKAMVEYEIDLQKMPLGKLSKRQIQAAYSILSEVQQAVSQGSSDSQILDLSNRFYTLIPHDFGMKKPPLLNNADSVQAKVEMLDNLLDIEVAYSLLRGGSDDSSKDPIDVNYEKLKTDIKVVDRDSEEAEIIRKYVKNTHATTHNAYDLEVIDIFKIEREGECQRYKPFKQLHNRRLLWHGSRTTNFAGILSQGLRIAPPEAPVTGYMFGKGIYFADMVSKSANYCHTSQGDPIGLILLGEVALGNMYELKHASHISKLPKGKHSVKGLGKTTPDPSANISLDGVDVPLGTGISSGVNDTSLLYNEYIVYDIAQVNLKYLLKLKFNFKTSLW

Compound	Ki [1]	melting point
Cc1ccc(-c2nc(-c3nc4cccc5c4n3CCNC5=O)cs2)cc1 [Example 106, 1-(2-p-Tolyl-thiazol-4-yl)-8,9-dihydro-7H-2,7,9a-triaza-benzo[cd]azulen-6-one]	8 nM	308 to 313 °C
O=C1NCCn2c(-c3ncc[nH]3)nc3cccc1c32 [Example 80, 1-(1H-Imidazol-2-yl)-8,9-dihydro-7H-2.7,9a-triaza-benzo[cd]azulen-6-one]	9 nM	227 to 228 °C (dec.)
CC(O)c1cn2c3c(cccc13)C(=O)NCC2 (stereo not shown) [Example 163, 7-(1-Hydroxy-ethyl)-3,4-dihydro-2H-[1,4]diazepino[6,7,1-hi]indol-1-one]	692 nM	295 to 297 °C
NC(=O)c1c(-c2ccc(F)cc2)n2c3c(cccc13)C(=O)NCC2 [Example 92, 6-(4-Fluoro-phenyl)-1-oxo-1,2,3,4-tetrahydro-[1,4]diazepino[6,7,1-hi]indole-7-carboxylic Acid Amide]	200 nM	287 to 289 °C
O=C1NCCn2c(-c3cccc(Cc4ccccc4)c3)nc3cccc1c32 [Example 67, 1-(3-Benzylphenyl)-8,9-dihydro-7H-2,7,9a-triaza-benzo[cd]azulen-6-one]	9.3 nM	205 to 208 °C
C[S+]([O-])c1nc2cccc3c2n1CCNC3=O (stereo not shown) [Example 139, 1-Methanesulfinyl-8,9-dihydro-7H-2,7,9a-triaza-benzo[cd]azulen-6-one]	12 nM	241 to 242 °C (dec.)
O=C1NCCn2c(-c3ccc(CN4CCCC4)cc3)cc3cccc1c32 [Example 84, 6-(4-Pyrrolidin-1-ylmethyl-phenyl)-3,4-dihydro-2H-[1,4]diazepino[6,7,1-hi]indol-1-one]	6.5 nM and 7.1 nM	146 to 148 °C
O=C1NCCn2c(-c3cccc(Oc4ccc(Cl)c(Cl)c4)c3)nc3cccc1c32 [Example 63, 1-[3-(3,4-Dichlorophenoxy)-phenyl]-8,9-dihydro-7H-2,7,9a-triaza-benzo[cd]azulen-6-one]	13 nM	252 to 254 °C (dec.)
O=C1NCCn2c(-c3ccc(CCOC4CCCCO4)cc3)nc3cccc1c32 (stereo not shown) [Example 125, 1-{4-[2-(Tetrahydro-pyran-2-yloxy)-ethyl]-phenyl}-8,9-dihydro-7H-2,7,9a-triaza-benzo[cd]azulen-6-one]	11 nM	189 to 190 °C
O=C1NCCn2c(C(=O)NCc3ccccc3)nc3cccc1c32 [Example 110, 6-Oxo-6,7,8,9-tetrahydro-2,7,9a-triaza-benzo[cd]azulen-1-carboxylic Acid Benzylamide]	18 nM	247 to 250 °C
O=C1NCCn2c(-c3ccc(CCO)cc3)nc3cccc1c32 [Example 127, 1-[4-(2-Hydroxy-ethyl)-phenyl]-8,9-dihydro-7H-2,7,9a-triaza-benzo[cd]azulen-6-one]	3.5 nM and 3.6 nM	263 to 265 °C
COC(=O)CCCc1cc2cccc3c2n1CCNC3=O [Example 161]	116 nM	175 to 176 °C
COC(OC)c1cccc(-c2nc3cccc4c3n2CCNC4=O)c1 [Example 31a, 1-(3-Dimethoxymethyl-phenyl)-8,9-dihydro-7H-2,7,9a-triaza-benzo[cd]azulen-6-one]	22 nM	182 to 185 °C
O=C1NCCn2c(-c3ccc(=O)n(Cc4ccccc4)c3)nc3cccc1c32 [Example 114, 1-(1-Benzyl-6-oxo-1,6-dihydro-pyridin-3-yl)-8,9-dihydro-7H-2,7,9a-triaza-benzo[cd]azulen-6-one]	9.9 nM	265 to 269 °C (dec.)
O=C1NCCn2c(-c3cccc(CN4CCCC4)c3)cc3cccc1c32 [Example 88, 6-(3-Pyrrolidin-1-ylmethyl-phenyl)-3,4-dihydro-2H-[1,4]diazepino[6,7,1-hi]indol-1-one]	12 nM and 13 nM	158 to 160 °C
O=C1NCCn2c(-c3ccnc(Cl)c3)nc3cccc1c32 [Example 15, 1-(2-Chloropyridin-4-yl)-8,9-dihydro-7H-2,7,9a-triaza-benzo[cd]azulen-6-one]	12.1 nM	265 °C (dec.)
O=C1NCCn2c(-c3ccc(-c4ncc[nH]4)cc3)nc3cccc1c32 [Example 152, 1-[4-(1H-Imidazol-2-yl)-phenyl]-8,9-dihydro-7H-2,7,9a-triaza-benzo[cd]azulen-6-one]	3.2 nM	> 325 °C
O=C1NCCn2c(-c3nccs3)nc3cccc1c32 [Example 94, 1-(Thiazol-2-yl)-8,9-dihydro-7H-2,7,9a-triaza-benzo[cd]azulen-6-one]	4.3 nM	271 to 276 °C
O=C1NCCn2c(-c3ccc(CN4CC[S+]([O-])CC4)cc3)nc3cccc1c32 [Example 122, 1-[4-(Oxo-1λ^4-thiomorpholin-4-ylmethyl)-phenyl]-8,9-dihydro-7H-2,7,9a-triaza-benzo[cd]azulen-6-one]	7 nM	247 °C (dec.)

Compound	Ki [1]	melting point
O=Cc1cccc(-c2cc3cccc4c3n2CCNC4=O)c1 [Example 85, 3-(1-Oxo-1,2,3,4-tetrahydro-[1,4]diazepino[6,7,1-hi]indol-6-yl)-benzaldehyde]	12 nM and 13 nM	192 to 194 °C
NC(=S)c1c(-c2ccc(F)cc2)n2c3c(cccc13)C(=O)NCC2 [Example 153, 6-(4-Fluoro-phenyl)-1-oxo-1,2,3,4-tetrahydro-[1,4]diazepino[6,7,1-hi]indole-7-carbothioic Acid Amide]	219 nM	238 to 240 °C
CS(=O)(=O)c1nc2cccc3c2n1CCNC3=O [Example 140, 1-Methanesulfonyl-8,9-dihydro-7H-2,7,9a-triaza-benzo[cd]azulen-6-one]	6.8 nM	> 190 °C (dec.)
COc1ccc(Oc2cccc(-c3nc4cccc5c4n3CCNC5=O)c2)cc1 [Example 64, 1-[3-(4-Methoxyphenoxy)-phenyl]-8,9-dihydro-7H-2,7,9a-triaza-benzo[cd]azulen-6-one]	6.2 nM	196 to 198 °C
CNCc1cccc(-c2cc3cccc4c3n2CCNC4=O)c1 [Example 87, 6-(3-Methylaminomethyl-phenyl)-3,4-dihydro-2H-[1,4]diazepino[6,7,1-hi]indol-1-one]	6.7 nM and 7 nM	128 to 130 °C
N/C(=N\O)c1c(-c2ccc(F)cc2)n2c3c(cccc13)C(=O)NCC2 [Example 155, 6-(4-Fluoro-phenyl)-N-hydroxy-1-oxo-1,2,3,4-tetrahydro-[1,4]diazepino[6,7,1-hi]indole-7-carboxmidine]	87 nM	257 to 259 °C
N#Cc1cccc(-c2nc3cccc4c3n2CCNC4=O)c1 [Example 73, 3-(6-Oxo-6,7,8,9-tetrahydro-2,7,9a-triaza-benzo[cd]azulen-1-yl)-benzonitrile]	10 nM	283 to 284 °C (dec.)
O=C(c1ccccc1)c1cn2c3c(cccc13)C(=O)NCC2 [Example 167, 7-(1-Benzoyl)-3,4-dihydro-2H-[1,4]diazepino[6,7,1-hi]indol-1-one]	337 nM	229 to 230 °C
O=C1NCCn2c(C(F)(F)F)nc3cccc1c32 [Example 112, 1-Trifluoromethyl-8,9-dihydro-7H-2,7,9a-triaza-benzo[cd]azulen-6-one]	18 nM	277 to 281 °C (dec.)
O=C1NCCn2c(-c3ccc(OCCN4CCCC4)cc3)nc3cccc1c32 [Example 123, 1-[4-(2-Pyrrolidin-1-yl-ethoxy)-phenyl]-8,9-dihydro-7H-2,7,9a-triaza-benzo[cd]azulen-6-one]	9 nM	172 to 175 °C
CC(O)c1c(-c2ccc(F)cc2)n2c3c(cccc13)C(=O)NCC2 (stereo not shown) [Example 157, 6-(4-Fluoro-phenyl)-7-(1-hydroxy-ethyl)-3,4-dihydro-2H-[1,4]diazepino[6,7,1-hi]indol-1-one]	540 nM	220 to 222 °C
C[C@H]1Cn2c(-c3ccc(Cl)cc3)nc3cccc(c32)C(=O)N1 [Example 235, (S)-1-(4-Chloro-phenyl)-8-methyl-8,9-dihydro-7H-2,7,9a-triaza-benzo[cd]azulen-6-one]	5.4 nM	244 to 246 °C
O=C1NCCn2c(C(=O)N3CCOCC3)nc3cccc1c32 [Example 113, 1-(Mompholine-4-carbonyl)-8,9-dihydro-7H-2,7,9a-triaza-benzo[cd]azulen-6-one]	24 nM	271 to 274 °C (dec.)
N#CCCNCc1ccc(-c2nc3cccc4c3n2CCNC4=O)cc1 [Example 111, 3-[4-(6-Oxo-6,7,8,9-tetrahydro-2,7,9a-triaza-benzo[cd]azulen-1-yl)-benzylamino]-propionitrile]	5.1 nM	208 to 214 °C
O=C1NCCn2c(-c3cccc(Oc4cc(Cl)cc(Cl)c4)c3)nc3cccc1c32 [Example 65, 1-[3-(3,5-Dichlorophenoxy)-phenyl]-8,9-dihydro-7H-2,7,9a-triaza-benzo[cd]azulen-6-one]	11 nM	258 to 259 °C (dec.)
O=C1NCCn2c(-c3ccc(-c4nn[nH]n4)cc3)nc3cccc1c32 [Example 136, 1-[4-(2H-Tetrazol-5-yl)-phenyl]-8,9-dihydro-7H-2,7,9a-triaza-benzo[cd]azulen-6-one]	96 nM	> 290 °C (dec.)
O=C1NCCn2c(-c3ccc(Cl)nc3)nc3cccc1c32 [Example 118, 1-(6-Chloro-pyridin-3-yl)-8,9-dihydro-7H-2,7,9a-triaza-benzo[cd]azulen-6-one]	4.4 nM	> 280 °C (dec.)
O=C1NCCn2c(-c3cccc(C4OCCO4)c3)nc3cccc1c32 [Example 55, (3-[1,3]Dioxolan-2-yl-phenyl)-8,9-dihydro-7H-2,7,9a-triaza-benzo[cd]azulen-6-one]	10 nM	223 to 225 °C
CSc1nc2cccc3c2n1CCNC3=O [Example 138, 1-Methylsulfanyl-8,9-dihydro-7H-2,7,9a-triaza-benzo[cd]azulen-6-one]	11 nM	223 to 225 °C
